{"source": "paper PMC2660605", "about": "(Biochemistry, 2008)", "origin": "cited, not measured here", "key": {"[1]": {"test_system": "HIV-1 with IN mutation T66I"}, "HIV-1 integrase E92Q": {"target": "HIV-1 integrase E92Q (Human immunodeficiency virus type 1 group M subtype B, UniProt P12497, E1239Q)", "details": "E92Q mutant"}, "[2]": {"test_system": "HIV-1 with IN mutation E92Q"}}, "data": [{"smiles": "COc1cc2c(cc1Cc1cccc(Cl)c1F)c(=O)c(C(=O)O)cn2[C@H](CO)C(C)C", "note": "[Elvitegravir, elvitegravir]", "values": [{"measurement": "reduced susceptibility", "setting": "[1]", "value": 37, "unit": "fold"}, {"measurement": "resistance level", "setting": "HIV-1 integrase E92Q", "value": 4.3, "unit": "fold"}, {"measurement": "reduced susceptibility", "setting": "[2]", "value": 36, "unit": "fold"}]}]}
